Measurements as given in a melting point compilation (Tetko et al.; mined from patent text by program, amines drawn as free bases though some values may be those of a salt).

| melting point | SMILES |
| --- | --- |
| 208 to 214 °C | CCc1nc2c(C(N)=O)cccc2n1-c1ccc(CCNC(=O)NS(=O)(=O)c2ccc(C)cc2)cc1 |
| 240 to 241 °C | O=C1NC2=C(C=CCC2)S(=O)(=O)c2cc(C(F)(F)F)ccc21 |
| 214 to 215 °C | COc1ccc(C(=O)Nc2cnc3c(c2)CN(Cc2ccccc2)CC3)cc1Br |
| 186 to 187 °C | CC=CCNc1cc(C(=O)O)cc(S(N)(=O)=O)c1-c1ccccc1 |
| 177 to 178 °C | CC1=C(C(=O)Nc2cnc3c(C)cc(C)cc3c2-c2ccccc2Cl)Sc2ccccc2N1 |
| 263 to 267 °C | CCC(=O)Nc1nc(N2CCC(c3c[nH]c4ccc(NC(C)=O)cc34)CC2)cs1 |
| 122 to 123 °C | O=C1N[C@H](Cc2ccc(C(F)(F)F)c(F)c2)[C@H](c2ccc(F)cc2)O1 (racemic) |
| 168 to 170 °C | Nc1cnn2cnc3ccccc3c12 |
| 224 to 225 °C | Cc1sc2c(Br)c3ccccc3c(-c3cc(Br)c(OC(C)C(=O)O)c(Br)c3)c2c1C (centres undefined) |
| 137 to 138 °C | CCc1noc(-c2cn(-c3cccc(OCc4ccc(Cl)cc4)c3)cn2)n1 |
| 78 to 80 °C | COc1ncc(OC)c(Cl)n1 |
| 196 to 198 °C | COc1cccc(-n2c3c(c(=O)c4cccnc42)CC(CBr)O3)c1 (centres undefined) |
| 70 to 74 °C | COc1cc(CC(=O)N[C@@H](COC(=O)C(C)(C)C)Cc2ccccc2)ccc1OCCN |
| 101 to 103 °C | CCOC(=O)C1Cc2ccccc2N1C(=O)C(C)Br (centres undefined) |
| 180 to 182 °C | O=C(O)Cc1cc([N+](=O)[O-])ccc1C(=O)O |
| 113 to 119 °C | Cc1nc(-c2ccc(C#N)cc2)sc1C(=O)N(CCO)[C@H](C)[C@](O)(Cn1cncn1)c1ccc(F)cc1F |
| 155 to 156 °C | Cc1oc(-c2ccccc2)nc1COc1ccc([N+](=O)[O-])cc1F |
| 194 to 196 °C | Cn1ncnc1COc1nn2c(-c3ccccc3F)nncc2c1-c1cccc(C#N)c1 |
| 193 to 194 °C | CCOC(=O)c1cc(=O)c2cc3c(=O)cc(C(=O)OCC)n(CC)c3cc2o1 |
| 248 to 249 °C | O=C(O)COc1ccc(-c2c3ccccc3cc3sc4ccccc4c23)cc1I |
| 103 to 107 °C | O=C(Nc1ccc(N2CCNCC2)c(C(F)(F)F)c1)c1ccc(F)c(OCc2cncc3ccccc23)c1 |
| 112 to 113 °C | Cn1nc(-c2ccccc2O)c2sccc21 |
| 99 to 100 °C | CS(=O)(=O)c1ccc(C(Cc2ccccc2F)C(=O)Nc2nc3ccccc3o2)cc1 (centres undefined) |
| 37 to 39 °C | CC(C)(C)CCCCCCCCCCCC(=O)O |
| 105 to 106 °C | N#CCCNC(=S)C1=CC(CF)(CF)Oc2ccc(C(F)(F)F)cc21 |

| melting point | SMILES |
| --- | --- |
| 141 to 143 °C | CC(=O)Oc1ccccc1C(=O)ON(C(N)=O)C(C)c1cc2ccccc2s1 (centres undefined) |
| 237 to 238 °C | COc1cc(C(=O)O)ccc1Cn1ccc2ccc(NC(=O)OC3CCCC3)cc21 |
| 154 to 156 °C | CCOC(=O)c1cnc(-c2ccccc2)nc1Nc1ccccc1N |
| 40 to 42 °C | COc1cccc([C@H](C(C)C)N2CCC(c3noc4cc(F)ccc34)CC2)c1 |
| 163 to 164 °C | CCCCC(CC)C(=O)NCCCCn1cnc2c(N)nc3ccccc3c21 (centres undefined) |
| 122 to 124 °C | OC[C@@H]1CCCN1Cc1cc2cc3c(cc2c2cc(OCc4ccccc4)ccc12)OCO3 |
| 105 to 107 °C | CCCCC(CC)COc1ccc2c(-c3ccc(CBr)cc3)c3cc(OCC(CC)CCCC)ccc3c(-c3ccc(CBr)cc3)c2c1 (centres undefined) |
| 222 °C | CN(C)c1nc(=O)[nH]n1C |
| 158 to 160 °C | Nc1c(Cl)c(Oc2ccccc2)nc(C(=O)O)c1Cl |
| 165 °C | CCOC(=O)c1cn(-c2ccc(F)cn2)c2nc(N3CC(C)NC(C)C3)c(F)cc2c1=O (centres undefined) |
| 141 to 142 °C | CCOC(=O)C(=O)Nc1cc(C)c(C(=O)OCC)s1 |
| 109 to 110 °C | CCCCNC(=O)C(=O)NCCCCCBr |
| 148 to 149 °C | COc1ccc(-c2cc(=O)c3ccc(OCC4CO4)cc3o2)cc1OC (centres undefined) |
| 108 to 109 °C | NCC(=O)N1Cc2ccccc2Oc2ccc(Cl)cc21 |
| 204 to 206 °C | COc1cccc(CNC(=O)c2nc3ccc(F)c(OCCc4ccc(NS(N)(=O)=O)cc4)c3c(=O)[nH]2)c1 |
| 103 to 105 °C | COC(=O)c1ccc(-n2cccc2C=O)cc1 |
| 194 to 195 °C | CC1Cc2cc3c(cc2C1)CC(C(=N)NO)C3 |
| 296 to 300 °C | CCCc1nc(C)n2c(=O)n(CC(=O)O)nc2c1Cc1ccc(NC(=O)c2ccccc2S(=O)(=O)O)cc1 |
| 164 to 165 °C | COCCOc1ccc(/C=C/C(=O)NS(=O)(=O)c2ccccn2)c(Oc2ncc(C(F)(F)F)cc2Cl)c1 |
| 136 °C | COc1ccc2c(c1Cl)Sc1ccccc1N2C |
| 252 to 254 °C | CC(C)OC(=O)c1cc(-n2c(=O)[nH]c3c(c2=O)SCC3)c(F)cc1Cl |
| 84 to 85 °C | OC(CCCc1ccc(Cl)cc1)Cn1ccnc1 (centres undefined) |
| 249 °C | Cc1c(C(=O)N=C(N)N)cc(S(C)(=O)=O)c(-n2ccnc2)c1C |
| 114 to 116 °C | COc1cc(C(=O)C(=O)O)cc(OC)c1OCCOc1ccc2ccccc2c1 |
| 206 to 207 °C | NS(=O)(=O)c1ccc(-c2ccccc2-c2ccc(Cl)cc2)cc1 |

| melting point | SMILES |
| --- | --- |
| 225 to 226 °C | CCCn1c(=O)nc(SC)c2c1ncn2C |
| 72.5 to 73.5 °C | CN(C)c1ccc(C2OC(C)(C)N=C2c2ccccc2Cl)cc1 (centres undefined) |
| 220 to 223 °C | COc1c(C(=O)C=Cc2ccncc2)cc(Cl)c(N)c1OC |
| > 250 °C | NCC1Cc2cc(C(F)(F)F)cc(-c3ccc(F)cc3)c2O1 (centres undefined) |
| 155 to 157 °C | Cn1c(CCN2CCN(Cc3ccccc3)CC2)nc2cc(Br)c3ccccc3c21 |
| 102 to 104 °C | O=C(NC/C=C\COc1cc(CN2CCCCC2)ccn1)NC1CC1 |
| 83 to 85 °C | CN1CCN(C(=O)[C@H](CC(N)=O)Nc2ccc(OCc3ccccc3)cc2OCc2ccccc2)CC1 |
| > 245 °C | O=C(O)c1ccc(C=NS(=O)(=O)c2ccc(Cl)cc2)cc1 |
| 101 to 103 °C | CCOC(=O)C=CC=Cc1cccc2cncn12 |
| 68 to 70 °C | CN(C)CCCC1(O)c2ccccc2CCn2cccc21 (centres undefined) |
| 128 to 129 °C | CC(C)Oc1c(C(=O)O)sc2c1CN(C(=O)OC(C)(C)C)CC2 |
| 97 to 98 °C | COc1ccc(C(=O)C(=O)c2ccccn2)cc1 |
| 186 to 189 °C | Nc1cc(Cl)c(N2CCCCC2)cc1-c1noc(=O)[nH]1 |
| 78 °C | CC(C)(C)OC(=O)Nc1ccc(-c2cccc(F)c2F)cc1N |
| 199 to 201 °C | Cc1ccc(-c2ccc3c(c2)C=C(C(=O)Nc2ccc(CN4CCC(Cc5ccccc5)CC4)cc2)CC3)cc1 |
| 200 to 203 °C | CC(C)(C)c1cc(C(C)(C)C)c2c(c1)C1(O)C(=O)c3ccccc3C1(O)O2 (centres undefined) |
| 191 to 193 °C | CCOC(=O)C1=C(C)Nc2ccnc(OC(C)C)c2C1c1ccccn1 (centres undefined) |
| 224 °C | C=C(C)C=NNC1=NS(=O)(=O)c2ccccc21 |
| 141 to 142 °C | CN(C)CCNC(=O)Nc1ccccc1 |
| 146 to 149 °C | Cc1cccc(C)c1NNC(=O)c1cccc2c1CC(N(C(=O)C(F)(F)F)C1CC1)CO2 (centres undefined) |
| 98 to 100 °C | Cc1ccccc1C(=O)N1CCc2nnc(NN)cc2C1 |
| 208 to 209 °C | Cc1nc(-c2ccccc2)nc(-c2cccc([N+](=O)[O-])c2)c1C(=O)O |
| 89 to 90 °C | CC(C)Oc1cc(CO)n(Cc2ccc(Cl)cc2Cl)n1 |
| 98 to 100 °C | CC(O)(CCCl)c1ccc(-c2ccc(Cl)cc2)cc1 (centres undefined) |
| 157 to 158 °C | CCOc1cccn2nc(-c3ccccc3)c(-c3ccc(=O)n(C(C)C)n3)c12 |

| melting point | SMILES |
| --- | --- |
| 192 to 193 °C | CCCOc1ccc(C)c2c(=O)c(-c3ccc(OC)cc3)c[nH]c12 |
| 170 to 180 °C | C=CCn1c(N)c(N=O)c(=O)n(CC=C)c1=O |
| 150 to 152 °C | CC[C@H](COC)n1cc(Br)nc(N2CCc3cc(OC)c(F)c(Cl)c32)c1=O |
| 193 to 195 °C | N#CC(=NOS(=O)(=O)c1ccc(C(=O)Cl)cc1)c1ccccc1 |
| 71 °C | C=CC(=O)OCCOc1ccc(C(=O)C(C)(C)OC(=O)C=C)cc1 |
| 158 to 162 °C | O=C(O)C(CSc1ccccc1)CS(=O)(=O)c1ccc(-c2ccc(Cl)cc2)cc1 (centres undefined) |
| 104 to 108 °C | O=C(O)c1ccc(OCCNC(=O)C2Cc3ccccc3N2S(=O)(=O)c2ccc(-c3cccc(C(F)(F)F)c3)cc2)cc1Cl (centres undefined) |
| 150 to 153 °C | CCC(COC)Nc1nc(C)nc(N2CCc3cc(OC)cc(Cl)c32)c1C=O (centres undefined) |
| > 320 °C | NC(=O)c1ccc(-c2ccc3[nH]c(=O)ccc3c2)cc1 |
| 109 to 110 °C | N#CC=Cc1ccc(N)cc1 |
| 136 to 138 °C | Cc1ccc2c(c1)Sc1ccc(Cl)cc1CC2N1CCN(C)CC1 (centres undefined) |
| 124 °C | COc1cc(Nc2nccc(NC(=O)OC(C)(C)C)n2)cc(OC)c1OC |
| 188 °C | CC(C)c1c(S(=O)(=O)c2ccc(O)cc2)n(C)c2ccccc12 |
| 269 to 271 °C | COC(=O)[C@H]1CC[C@H](NC(=O)c2cc(-c3ccc(C#N)cc3)nnc2N2CCOCC2)CC1 |
| 214 to 216 °C | COC(=O)C1(C)CN(C(=O)Nc2c(C)noc2C)N=C1c1ccc(Cl)cc1 (centres undefined) |
| 301 to 304 °C | O=C1Nc2ccc([N+](=O)[O-])cc2C1c1ncnc2nn(C3CCCCC3)cc12 (centres undefined) |
| 118 to 123 °C | NC(=O)c1cc(C(=O)CN(Cc2ccccc2)Cc2ccccc2)ccc1OCCCCOC1CCCCO1 (centres undefined) |
| 201 to 205 °C | O=c1cc(-c2nnn[nH]2)oc2cc(CCc3cccc(OCc4ccc5ccccc5n4)c3)ccc12 |
| 57 to 58 °C | COC=C(C#CCON=C(C)c1cccc(C(F)(F)F)c1)C(=O)OC |
| 87 °C | CCOC(=O)c1c(C(C)C)nc(C(C)C)c(C(=O)OCC)c1-c1ccc(OCc2ccccc2)cc1 |
| 210 to 212 °C | CC(=N)NC(=O)Nc1ccc(C)cc1 |
| 196 to 199 °C | CCCCc1nc2c(N)nc3ccccc3c2n1CCN |

| SMILES | melting point |
| --- | --- |
| CN1Cc2c(-c3noc(CCl)n3)ncn2-c2ccccc2C1=O | 208 to 209 °C |
| N#Cc1cccc(CN2CCN(c3ccc(N)cc3)CC2)c1 | 79 to 81 °C |
